Legend:
[1] = test system: Nb2 cells; assay: PRL-driven proliferation of Nb2 cells (3H-thymidine); type: cell-based, rat; conditions: for enhancement of PRL-driven growth vs cultures that received only PRL: Nb2 cells, biphasic, most prominent at 5–10 mM CypB and 50 pM PRL
Protocol: (§1) The effect of exogenous CypB on PRL-driven proliferation was examined with the rat Nb2 T-cell and the human T47D breast cancer line. […] This dose-dependent biphasic effect was most prominent at physiologic concentrations ([…]) of CypB and PRL (50 pM) found in human serum. […] To determine the effect of CypB on cellular growth driven by the larger family of cytokines, to which PRL belongs, proliferation driven by interleukin-2 (IL-2), IL-3 and GH was examined.
(§2) Nb2-cells (5×10^4; PRL-dependent, rat T-lymphoma) were plated in each well of 96 well plates in a defined DMEM-serum free medium (0.1 mM 2-mercaptoethanol, 1% penicillin/streptomycin, and 1% ITS+ (Calbiochem)). Cells were rested for 24 hours at 37° C. in this defined medium in the absence of PRL before the addition of 5–500 pM PRL (either as human pituitary isolated PRL, National Hormone and Pituitary Program, NIDDK; recombinant human PRL from E. coli, Genzyme; or recombinant human PRL from Drosophila S2 cells) alone or premixed with 1–2000 fold excess of purified CypB. Parallel studies were performed using human pituitary-derived GH (National Hormone and Pituitary Program, NIDDK). Cultures were incubated for 48 hours at 37° C. and proliferation was evaluated by the addition of 0.5 μCi of ^3H-thymidine for four hours followed by harvesting and scintillography. When stimulated with PRL alone, Nb2 cells yield sigmoid shaped growth curves that plateau at approximately 2 ng PRL/ml.

[2] = target: T1, PRL (Homo sapiens, UniProt P01236); assay: Co-immunoprecipitation of admixed purified epitope-tagged proteins; type: binding; parameters: Full length PRL cDNA was generated by PCR; made in house; host or cells: Drosophila S2 cells (pAc5/V5-HisA); conditions: reducing agent or divalent cation facilitated the interaction
T1 sequence (P01236 29-227): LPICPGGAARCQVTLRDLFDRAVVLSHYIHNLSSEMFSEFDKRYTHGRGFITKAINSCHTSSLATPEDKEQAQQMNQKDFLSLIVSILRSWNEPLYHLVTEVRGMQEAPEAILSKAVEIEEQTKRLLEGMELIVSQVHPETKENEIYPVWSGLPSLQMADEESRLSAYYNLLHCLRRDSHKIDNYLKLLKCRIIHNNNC

[3] = test system: IL-2-driven proliferation; assay: IL-2-driven proliferation; type: cell-based; conditions: varying concentration of CypB
Protocol: as §1

[4] = target: T1, PRL; assay: Co-immunoprecipitation of PRL with CypB from human serum; type: binding
[5] = test system: IL-3-driven proliferation; assay: IL-3-driven proliferation; type: cell-based; conditions: varying concentration of CypB
Protocol: as §1

[6] = test system: Nb2 cells; assay: GH-driven proliferation; type: cell-based, rat; conditions: physiological concentrations of CypB
Protocol: as §1
as §2, with “When stimulated with PRL alone, Nb2 cells yield sigmoid shaped growth curves that plateau at approximately 2 ng PRL/ml.” left out

[7] = test system: T47D human breast cancer cells; assay: Nuclear retrotranslocation of PRL, anti-PRL indirect immunofluorescence; type: cell-based; conditions: added to defined T47D culture medium; CypB added to EGF-containing medium
Protocol: Experiments were performed to examine the ability of CypB to enhance nuclear retrotranslocation of PRL, and thereby PRL-driven proliferation.
The role of this sequence in the CypB-mediated retrotranslocation of PRL, and its associated enhancement of growth was tested by mutagenic approaches. The putative nuclear localization sequence of CypB was deleted in the mutant CypB-NT.

Substance | enhancement of PRL-driven growth vs cultures that received only PRL [1] | direct interaction with PRL (co-immunoprecipitation) [2] | effect on IL-2-driven proliferation [3] | co-immunoprecipitation of PRL from human serum [4] | effect on IL-3-driven proliferation [5] | enhancement of GH-driven proliferation vs GH alone [6] | enhancement of PRL-induced proliferation ([1]; cell line not given) | T47D nuclei exhibiting anti-PRL immunofluorescence [7]
CypA: recombinant form of the highly homologous cyclophilin family member CypA [reference compound] | did not result in any potentiation | failed to interact | – | – | – | – | – | –
CypB: cyclophilin B, peptidyl prolyl isomerase, GenBank NM 000942, SEQ ID NO: 1; recombinant His-tagged | eight-fold | interact directly | Neither IL-2- nor IL-3-driven proliferation was altered | direct co-immunoprecipitation of PRL with CypB from human serum | Neither IL-2- nor IL-3-driven proliferation was altered | forty-fold | failed to enhance | 95–100%

From US6979673B1, “Method and compositions for modulating somatolactogenic functions” (Trustees of the University of Pennsylvania, priority 1999, dated 2005)
